The NIST ThermoML archive (doi:10.1021/je0301747)
± gives the expanded uncertainty stated by the source.

How the values were obtained:
[1] = Liquid
[2] = molar enthalpy of vaporization or sublimation; settings: 298.15 K; Liquid

SMILES	vapor or sublimation pressure ([1]; 298.15 K)	vapor or sublimation pressure ([1]; 328.15 K)	vapor or sublimation pressure ([1]; 358.15 K)	vapor or sublimation pressure ([1]; 388.15 K)	vapor or sublimation pressure ([1]; 418.15 K)	vapor or sublimation pressure ([1]; 448.15 K)	vapor or sublimation pressure ([1]; 478.15 K)	vapor or sublimation pressure ([1]; 508.15 K)	vapor or sublimation pressure ([1]; 538.15 K)	vapor or sublimation pressure ([1]; 568.15 K)	vapor or sublimation pressure ([1]; 575.15 K)	molar enthalpy [2]
CCCCCCCCCCCCCCCCCCCCCC [docosane]	2.148e-07 ± 4e-07 kPa	1.218e-05 ± 5.5e-06 kPa	0.0002988 ± 8.8e-05 kPa	0.003922 ± 0.00095 kPa	0.032 ± 0.007 kPa	0.1809 ± 0.038 kPa	0.7674 ± 0.16 kPa	2.593 ± 0.53 kPa	7.298 ± 1.5 kPa	17.71 ± 3.6 kPa	21.39 ± 4.3 kPa	26.7 ± 1.89 kcal/mol
CCCCCCCCCCCCCCCCCCCCCCCCCCCCCC [triacontane]	3.317e-11 kPa	8.03e-09 ± 1e-08 kPa	6.217e-07 ± 3.6e-07 kPa	2.045e-05 ± 7.1e-06 kPa	0.0003508 ± 9.2e-05 kPa	0.003636 ± 0.00084 kPa	0.02543 ± 0.0055 kPa	0.1301 ± 0.027 kPa	0.5185 ± 0.11 kPa	1.687 ± 0.34 kPa	2.167 ± 0.44 kPa	36.4 ± 3.82 kcal/mol
CCCCCCCCCCCCCCCCCCCCCCCC [tetracosane]	2.373e-08 kPa	1.931e-06 ± 1.1e-06 kPa	6.308e-05 ± 2.1e-05 kPa	0.001041 ± 0.00027 kPa	0.01022 ± 0.0023 kPa	0.06716 ± 0.014 kPa	0.3225 ± 0.067 kPa	1.208 ± 0.25 kPa	3.705 ± 0.75 kPa	9.668 ± 2 kPa	11.85 ± 2.4 kPa	29.1 ± 1.96 kcal/mol
CCCCCCCCCCCCCCCCCCCCCCCCC [pentacosane]	8.145e-09 kPa	7.894e-07 ± 5.2e-07 kPa	2.963e-05 ± 1.1e-05 kPa	0.0005462 ± 0.00015 kPa	0.005863 ± 0.0014 kPa	0.04146 ± 0.009 kPa	0.2114 ± 0.044 kPa	0.8322 ± 0.17 kPa	2.661 ± 0.54 kPa	7.192 ± 1.5 kPa	8.882 ± 1.8 kPa	30.3 ± 2.03 kcal/mol
CCCCCCCCCCCCCCCCCCCCCCCCCCCCC [nonacosane]	1.018e-10 kPa	2.044e-08 ± 2.3e-08 kPa	1.365e-06 ± 6.8e-07 kPa	3.99e-05 ± 1.1e-05 kPa	0.0006219 ± 0.00012 kPa	0.005963 ± 0.00088 kPa	0.0391 ± 0.005 kPa	0.1897 ± 0.022 kPa	0.7225 ± 0.08 kPa	2.264 ± 0.24 kPa	2.884 ± 0.3 kPa	35.2 ± 3.59 kcal/mol
CCCCCCCCCCCCCCCCCCCCCCCCCC [hexacosane]	2.809e-09 kPa	3.247e-07 ± 2.4e-07 kPa	1.401e-05 ± 5.6e-06 kPa	0.0002888 ± 8.1e-05 kPa	0.003393 ± 0.0008 kPa	0.02583 ± 0.0056 kPa	0.14 ± 0.029 kPa	0.5797 ± 0.12 kPa	1.934 ± 0.4 kPa	5.417 ± 1.1 kPa	6.742 ± 1.4 kPa	31.5 ± 2.22 kcal/mol
CCCCCCCCCCCCCCCCCCCCC [heneicosane]	6.69e-07 kPa	3.15e-05 ± 2.3e-05 kPa	0.0006673 ± 0.00029 kPa	0.007785 ± 0.0025 kPa	0.05774 ± 0.015 kPa	0.3019 ± 0.071 kPa	1.201 ± 0.27 kPa	3.849 ± 0.83 kPa	10.36 ± 2.2 kPa	24.22 ± 5 kPa	29.02 ± 6 kPa	25.5 ± 1.74 kcal/mol
CCCCCCCCCCCCCCCCCCCCCCCCCCC [heptacosane]	1.127e-09 kPa	1.502e-07 ± 1.2e-07 kPa	7.253e-06 ± 2.8e-06 kPa	0.0001636 ± 3.8e-05 kPa	0.002067 ± 0.00034 kPa	0.01669 ± 0.0023 kPa	0.09492 ± 0.012 kPa	0.4089 ± 0.046 kPa	1.409 ± 0.15 kPa	4.056 ± 0.43 kPa	5.076 ± 0.53 kPa	32.4 ± 2.29 kcal/mol
CCCCCCCCCCCCCCCCCCCCCCCCCCCC [octacosane]	3.173e-10 kPa	5.263e-08 ± 5.1e-08 kPa	3.022e-06 ± 1.4e-06 kPa	7.829e-05 ± 2.4e-05 kPa	0.001107 ± 0.00027 kPa	0.009795 ± 0.0022 kPa	0.06012 ± 0.013 kPa	0.276 ± 0.057 kPa	1.004 ± 0.21 kPa	3.025 ± 0.62 kPa	3.823 ± 0.77 kPa	33.9 ± 3.35 kcal/mol
CCCCCCCCCCCCCCCCCCCCCCC [tricosane]	7.059e-08 kPa	4.801e-06 ± 2.5e-06 kPa	0.0001361 ± 4.3e-05 kPa	0.002006 ± 0.0005 kPa	0.01797 ± 0.004 kPa	0.1096 ± 0.023 kPa	0.4952 ± 0.1 kPa	1.763 ± 0.36 kPa	5.183 ± 1.1 kPa	13.05 ± 2.6 kPa	15.88 ± 3.2 kPa	28 ± 1.96 kcal/mol
